Reference: patent US20260125649A1, “MEDIUM COMPOSITION AND METHOD FOR CULTURING MESENCHYMAL STEM CELLS” (ACADEMIA SINICA, priority 2018, published 2026)

Key:
Assay type in all cases: cell-based, human
[1] = tested on: MSCs; experiment: Cell cycle progression by flow cytometry with PI staining; details: inhibitor pretreatment (AG1478 25 μM, 30 min; WP1066 5 μM), then EpEX 18 h
Experimental: Phospho-EGFR (Tyr845) was detected by Western blotting. […] After treatment, cell cycle progression was investigated by flow cytometry with PI staining. Fraction of cells in each phase (G1, S, G2/M) of the cell cycle was evaluated. Cells that expressed EGFR shRNA or shLuc were treated with EpEX for 18 h. After treatment, cell cycle progression was investigated by flow cytometry with PI staining. Fraction of cells in each phase (G1, S, G2/M) of the cell cycle was evaluated. […] The protein expression of cell cycle regulators (cyclin D1, cyclin D2, cyclin E1) and pluripotency factors (Oct4, Sox2, c-Myc, Lin28) was examined by Western blotting. MSCs expressing EGFR shRNA were stimulated by EpEX. After treatment, the protein expression of cell cycle regulators (cyclin D1, cyclin E1, CDK4 and CDK9) and pluripotency factors (Oct4, in Sox2, c-Myc, and Lin 28) was examined by Western blotting. […] After treatment, the gene expression of pluripotency factors (Oct4, Sox2, c-Myc, Lin28 and EpCAM) was examined by qPCR.
After treatment, the protein levels of total STAT3 and phospho-STAT3 (Tyr705) were examined by Western blotting. […] Cell cycle progression was investigated by flow cytometry with PI staining. Fraction of cells in each phase (G1, S, G2/M) of the cell cycle was evaluated. […] Fraction of cells in each phase (G1, S, G2/M) of the cell cycle was evaluated. […]

[2] = tested on: cyclin A2, cyclin D1, cyclin D2, cyclin D3, cyclin E1, CDK4, CDK9, Oct4, Sox2, c-Myc, Lin28; experiment: Western blotting of cell cycle regulators and pluripotency factors in MSCs; details: pretreatment, then EpEX
Experimental: The proliferation of MSCs was examined by measuring doubling time. MSCs were treated with EpEX (3 μg/mL) for 24 and 48 h. Cell number was counted and then doubling time was calculated. MSCs were treated with EpEX (3 μg/mL) for the indicated times. After treatment, protein expression of cell cycle regulators (cyclin D1, cyclin D2, cyclin D3, cyclin E1, CDK4 and CDK9) and pluripotency factors (Oct4, Sox2, c-Myc, and Lin28) was examined by Western blotting.
Phospho-EGFR (Tyr845) was detected by Western blotting. […] After treatment, cell cycle progression was investigated by flow cytometry with PI staining. Fraction of cells in each phase (G1, S, G2/M) of the cell cycle was evaluated. Cells that expressed EGFR shRNA or shLuc were treated with EpEX for 18 h. After treatment, cell cycle progression was investigated by flow cytometry with PI staining. Fraction of cells in each phase (G1, S, G2/M) of the cell cycle was evaluated. […]
After treatment, the protein levels of total STAT3 and phospho-STAT3 (Tyr705) were examined by Western blotting. […] Fraction of cells in each phase (G1, S, G2/M) of the cell cycle was evaluated. […] Fraction of cells in each phase (G1, S, G2/M) of the cell cycle was evaluated. […]
The expression of let-7 was detected by qPCR. […] The expression of let-7 was detected by qPCR. […]

[3] = tested on: STAT3 (Tyr705); experiment: STAT3 phosphorylation by Western blotting
Experimental: After treatment, the protein levels of total STAT3 and phospho-STAT3 (Tyr705) were examined by Western blotting. […] Cell cycle progression was investigated by flow cytometry with PI staining. Fraction of cells in each phase (G1, S, G2/M) of the cell cycle was evaluated. Cells expressing STAT3 shRNA were treated with EpEX for 18 h, after which cell cycle progression was investigated by flow cytometry with PI staining. Fraction of cells in each phase (G1, S, G2/M) of the cell cycle was evaluated. […] The protein levels of cell cycle regulators (cyclin D1, cyclin D2, cyclin E1, CDK4 and CDK9) and pluripotency factors (Oct4, Sox2, c-Myc, Lin28) were examined by Western blotting. MSCs expressing STAT3 shRNA or shLuc were stimulated with EpEX. After treatment, the protein levels of cell cycle regulators (cyclin D1, cyclin D2, cyclin E1, CDK4 and CDK9) and pluripotency factors (Oct4, Sox2, c-Myc, and Lin 28) were examined by Western blotting. […] After treatment, the gene expression of pluripotency factors (Oct4, Sox2, c-Myc, Lin28 and EpCAM) was examined by qPCR.
FIG. 8. EpEX and EGF induce the phosphorylation of EGFR and STAT3. […] The phosphorylation of EGFR (Tyr845) and STAT3 (Tyr705) were examined by Western blotting with specific antibodies.
Western blotting was performed as previously described (Takahashi et al., 2003). […]

[4] = tested on: TACE (Ser435), PS2 (Ser327), ERK1/2; experiment: Western blotting of phosphorylation of TACE, Presenilin 2 and ERK1/2; details: addition of EGFR inhibitor
Experimental: FIG. 9. EpEX induces the phosphorylation and activity of TACE and γ-secretase. MSCs were stimulated by EpEX for the indicated times, and the activity of TACE and γ-secretase were detected. MSCs were stimulated by EpEX (3 μg/mL) for the indicated times. Western blot analysis was performed to detect the phosphorylation of TACE and Presenilin 2.
FIG. 10. EpEX and EGF induce the phosphorylation of TACE, ERK1/2 and PS2. MSCs were treated with either EGF, EpEX, or co-treated with EGF and EpEX for 5 min. The phosphorylation of ERK1/2 was examined by Western blotting with specific antibodies. […] The phosphorylation of ERK1/2, TACE (Ser435), PS2 (Ser327) were examined by Western blotting with specific antibodies.
Western blotting was performed as previously described (Takahashi et al., 2003). Cells were lysed in lysis buffer (150 mM NaCl, 50 mM Tris-HCl (pH 7.4), 1% Nonidet P-40), containing a protease inhibitor mix (Roche Applied Science). Nuclear fractions and cytoplasmic fractions were separated by the Nuclear/Cytosol Fractionation Kit according to the manufacturer's instructions (BioVision Inc., Milpitas, CA, USA). Protein samples were separated by SDS-PAGE under denaturing conditions, and transferred to a PVDF membrane (Millipore). […]

For `C[C@H](NC(=O)/C(C#N)=C/c1cccc(Br)n1)c1ccccc1` [WP1066, reference compound], the “effect on EpEX-induced cell cycle progression” value [1] was “attenuated” and the “effect on EpEX-induced protein expression of cell cycle regulators and pluripotency markers” value [2] was “blocked”.
For `COc1cc2ncnc(Nc3cccc(Cl)c3)c2cc1OC` [AG1478, reference compound], the “effect on EpEX-induced cell cycle progression” value [1] was “attenuated”, the “effect on activation of STAT3 by either EGF or EpEX” value ([3]; pretreatment with AG1478) was “can attenuate” and the “effect on EpEX-induced phosphorylation of TACE” value [4] was “can be abolished”. For the same molecule, the “effect on EpEX-induced phosphorylation of presenilin-2” value [4] was “can be abolished” and the “effect on EpEX-induced protein expression of cell cycle regulators and pluripotency markers” value [2] was “abolished”.
For EGF: cognate ligand for EGFR, the STAT3 phosphorylation ([3]; MSCs treated with the substance) was “can induce”.
